One molecule from US10683278B2 (JINAN UNIVERSITY, priority 2015, dated 2020) can be followed below.

pIC50: −log10 of the molar value.

One test deals with T1, AXL kinase (Homo sapiens, UniProt P30530).
T1 construct: purchased Invitrogen PV4803
T1 sequence (P30530 26-894): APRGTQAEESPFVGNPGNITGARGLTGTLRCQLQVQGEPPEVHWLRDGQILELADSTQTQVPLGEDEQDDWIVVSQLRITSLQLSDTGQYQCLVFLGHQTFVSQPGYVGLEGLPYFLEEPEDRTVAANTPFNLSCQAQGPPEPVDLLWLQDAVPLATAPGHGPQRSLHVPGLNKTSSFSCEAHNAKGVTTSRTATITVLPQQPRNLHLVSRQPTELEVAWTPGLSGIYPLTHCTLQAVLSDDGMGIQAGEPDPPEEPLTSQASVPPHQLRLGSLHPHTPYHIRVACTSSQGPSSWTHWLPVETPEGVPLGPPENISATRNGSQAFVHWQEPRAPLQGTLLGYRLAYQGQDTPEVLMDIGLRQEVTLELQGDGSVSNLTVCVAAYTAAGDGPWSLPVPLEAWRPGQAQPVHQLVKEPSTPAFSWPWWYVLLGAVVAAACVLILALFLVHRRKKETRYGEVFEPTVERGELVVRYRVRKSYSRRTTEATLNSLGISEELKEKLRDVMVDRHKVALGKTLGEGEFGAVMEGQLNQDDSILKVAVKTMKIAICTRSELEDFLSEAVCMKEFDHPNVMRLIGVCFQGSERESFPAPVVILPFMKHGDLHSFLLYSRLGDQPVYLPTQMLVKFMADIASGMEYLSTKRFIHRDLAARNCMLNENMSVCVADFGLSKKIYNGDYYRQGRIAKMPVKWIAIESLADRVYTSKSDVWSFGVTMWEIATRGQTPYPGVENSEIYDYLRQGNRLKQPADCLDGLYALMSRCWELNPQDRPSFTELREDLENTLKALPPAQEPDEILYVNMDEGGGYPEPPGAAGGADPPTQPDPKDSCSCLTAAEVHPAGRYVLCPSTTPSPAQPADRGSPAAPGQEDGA
Kind of test: IC50 test on AXL kinase (Z′-LYTE FRET kinase activity detection). The test is classed as biochemical. Summed up: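 Z′-LYTE FRET readout: after 1 h kinase reaction (AXL, Tyr 2 peptide, ATP, compound dilutions), a 1 h protease step cuts unphosphorylated substrate. Excitation at 400 nm, signals at 445 nm and 520 nm used to derive IC50.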

Another test relates to MV4-11 cells. The experiment in a line: Inhibition of proliferation of MV4-11 cells (CCK-8). The test is classed as cell-based. Conditions: Homo sapiens, 72 h, mean±standard deviation of two independent tests. The method, then: (§1) 12000 g of compounds were centrifuged for 5 min, DMSO was added to make a 10^−2M stock solution, vortexed uniformly and sonicated for 10 min for standby application, and stored at −40° C. The compounds were diluted from the stock solution with saline to 10 times the concentration to be tested (concentration of DMSO in the system being no more than 0.5%) during the test.
(§2) The inhibitory effect of the compounds on the proliferation of MV4-11 cells was detected using a CCK-8 cell counting kit (Dojindo). The specific steps are as follows: the MV4-11 cells in logarithmic growth phase were seeded into a 96-well culture plate at a suitable density in 90 μL/well, cultured overnight, compounds at different concentrations were then added and acted on cells for 72 hr, and the solvent control group (negative control) was set up. The effect of the compounds on cell proliferation was detected using a CCK-8 cell counting kit (Dojindo) after the compounds had acted on the cells for 72 h. 10 μL of CCK-8 reagent was added to each well, same was placed in an incubator at 37° C. for 2-4 hours, and the reading from the full-wavelength microwell plate ELIASA SpectraMax 190 was performed with a wavelength of 450 nm.
(§3) IC50 value was calculated using a software included with ELIASA by the four-parameter regression.
(§4) IC50 for the inhibition of the compounds on each stain of cells was derived from two independent repeated tests, and the results are shown as the mean±standard deviation.

The next test deals with Molm-13 cells. Kind of test: Inhibition of proliferation of Molm-13 cells (CCK-8). The test is classed as cell-based. The note with it: Homo sapiens, 72 h, mean±standard deviation of two independent tests. The method, then:
[Worded in the source for another cell line; this cell line is reported under the same test.] as §1, §2, §3, §4

For orientation: pIC50 means the negative decadic logarithm of the IC50, by convention in mol/L. Read a low pIC50 as a large IC50. As a reminder, the IC50 is the concentration that gives 50% inhibition. In turn, `CCc1ccc2c(c1)c(=O)c(C(=O)Nc1ccc(Oc3ncnc4cc(OC)c(OC)cc34)c(F)c1)c(CC)n2C` [TL4830074, N-(4-(6,7-dimethoxyquinazolin-4-yloxy)-3-fluorophenyl)-2,6-diethyl-1-methyl-4-oxo-1,4-dihydroquinoline-3-carboxamide] gave a pIC50 on AXL kinase (Z′-LYTE FRET peptide assay, 1 h reaction) of 8.05. Further, the “inhibitory activity on AXL kinase” value at AXL kinase (competitive experiment with ATP, in words) is “strong inhibitory activity”. For the same molecule, the half-inhibitory concentration (IC50) in the test on MV4-11 cells is more than 500 nM; with Molm-13 cells, more than 300 nM.
